Values quoted from earlier work, collected in paper PMC11190158, “Study on the design, synthesis, and activity of anti-tumor staple peptides targeting MDM2/MDMX” (Frontiers in Chemistry, 2024).

Key:
MDM2 = system: MDM2; design: method as in 2 sources, one per row (each row's own in cited_ref): ref Zhan and Lu, 2011; Brown et al., 2013; Wade et al., 2013 ||| ref Zhan et al., 2012a; Zhan et al., 2012b; Li et al., 2021; settings: in words, surface plasmon resonance and fluorescence polarization, ref Zhan et al., 2012a, 2012b, Li et al., 2021; cited from earlier work
MDMX = system: MDMX; design: method as in 2 sources, one per row (each row's own in cited_ref): ref Zhan and Lu, 2011; Brown et al., 2013; Wade et al., 2013 ||| ref Zhan et al., 2012a; Zhan et al., 2012b; Li et al., 2021; settings: in words, surface plasmon resonance and fluorescence polarization, ref Zhan et al., 2012a, 2012b, Li et al., 2021; cited from earlier work

**Q.** Which results are given for LTFLEYWAQLMQ [PMI-M3]?
**A.** binding to MDM2 (MDM2): binds well; binding to MDMX (MDMX): binds well
